Here are results for one compound from patent US20090269770A1, “METHODS FOR EVALUATION PROGNOSIS AND FOLLOW-UP OF DRUG TREATMENT OF PSYCHIATRIC DISEASES OR DISORDERS” (priority 2008, published 2009).

Several values for one entry are separate records, joined by “and”; a condition that tells them apart may be missing. Identical values can stand only once.

Common to all, as to assay type: in vivo, human
Series [1] has as its system PMC from schizophrenic patients. The series is described as follows: Real-time RT-PCR of IL8Rα, CCR1, CCR7, RGS7 mRNAs in PMC (6 patients). The procedure: FIGS. 1A-1D show real-time RT-PCR analysis of CCR1 (1A), CCR7 (1B), IL8Ra (1C) and RGS7 (1D) mRNAs in PMCs from schizophrenic patients treated with an antipsychotic drug combined with the antidepressant agent fluvoxamine. Fluvoxamine (100 mg/day) was added in an open study format to the constant antipsychotic treatment of 6 patients suffering from chronic schizophrenia with persistent negative symptoms. Total RNA, isolated from PMCs of these patients at baseline (day 0, BL) as well as following 3 and 6 weeks (3W and 6W, respectively) of the combined treatment, was reverse transcribed. cDNA was amplified in real-time PCR using suitable primers for CCR1, CCR7, IL8Ra and RGS7, as described in the Experimental section hereinafter. The relative expression level of a given mRNA was assessed by normalizing to the reference gene peptidylprolyl isomerase B (cyclophilin B, PPIB). For each patient, the expression level of each one of the genes at baseline was arbitrarily set as 1, and the gene expression levels at 3 and 6 weeks were calculated relative to baseline. Lines connecting points indicate samples of the same patient. Horizontal lines indicate group means. Student's t-test *p<0.05; **p<0.01 for 3 or 6 weeks of fluvoxamine add-on compared with baseline.
Two μg of total RNA were denatured and reverse transcribed using random hexanucleotides (0.5 μg/μl) as previously described (Chertkow et al., 2006). Real-time quantitative assessment was performed using LightCycler with FastStart DNA Master SYBR Green I ready-to use PCR mix kits according to the manufacture's protocol (Roche Diagnostics, Mannheim, Germany). Forty ng cDNA was amplified per sample. Each experimental set included one reaction with water as template to control for cross contamination. Amplified products were visualized on 1.5% agarose gel. The sequences of the primers, the experimental conditions and the melting temperature of the products are described in Table 2 hereinafter. The results were analyzed in real-time on the provided program of the LightCycler and normalized against a reference gene in order to correct sample-to-sample variation. […] Expression stability of these genes was determined in our samples with ‘Normfinder’ Excel applet (Andersen et al., 2004); PPIB was chosen as the reference gene for normalization. […]
The biochemical data were analyzed by one way analysis of variance (ANOVA) followed by Dunnett's test. […] Clinical response was assessed with repeated measure ANOVA.
In this study, the significant gene expression changes in the PMC of schizophrenic patients, observed in the customized array and shown in Example 1, were verified by real-time RT-PCR. […] The expression level of each candidate was assessed in all samples.
Background: In qPCR the cycle at which signal appears reflects the starting amount.

Series [2] relates to schizophrenic patients. The series is described as follows: Clinical rating scales for negative (SANS) and positive (SAPS) symptoms. As to conditions: for SANS total / SAPS total / Affective blunting score / Alogia score / Anhedonia score / Avolition score: one line per patient I-VI. The procedure:
Patients suffering from chronic schizophrenia (DSM IV criteria) with at least 2 years of illness (range 2-17 years) and persistent negative symptoms were chosen from an Israeli mental health center, as shown in Table 1. To qualify for inclusion in the study, these patients were required to be on constant antipsychotic medication for at least 6 months prior to the study and on an unchanged dose for at least 4 weeks before entry.
(§1) Fluvoxamine (100 mg/day) was added in an open study format to the antipsychotic treatment, which remained steady. Clinical state was assessed by psychiatrists using validated rating scales for negative (SANS) and positive (SAPS) symptoms (Silver et al., 2003) prior to fluvoxamine treatment and then weekly until the end of the trial period. Total SANS scores and summary scores for […] blunting, alogia, anhedonia and […] factors were the outcome measures. Extrapyramidal symptoms were assessed with the Simpson-Angus Scale (SAS) for extrapyramidal side effects (Simpson and Angus, 1970). Blood samples were taken at baseline (day 0), before addition of fluvoxamine, after 3 weeks of combined treatment, a time when the initial clinical effect is expected to be seen (Silver et al., 2003), and after 6 weeks of the combined treatment.
The biochemical data were analyzed by one way analysis of variance (ANOVA) followed by Dunnett's test. For each gene, differences between expression after 3 or 6 weeks of treatment ad baseline, were considered significant if they reached a level of significance of p<0.05. Clinical response was assessed with repeated measure ANOVA.

For series [3], the system named is schizophrenic patients. The experiment in a line: Simpson-Angus Scale (SAS) for extrapyramidal side effects. As to conditions: for Extra-pyramidal side effects score: one line per patient I-VI. The procedure:
as §1

Regarding `COCCCC/C(=N\OCCN)c1ccc(C(F)(F)F)cc1` [fluvoxamine], the “CCR7 mRNA expression” value in series [1] (3 and 6 weeks, among the patients) was “did not show a consistent trend”. Further, in series [1] (after 3 and 6 weeks of add-on treatment vs initial level, normalized to PPIB), the “IL8Rα mRNA expression” value is recorded as “reduced significantly”. In addition, in series [1] (after 6 weeks), the “RGS7 mRNA expression” value was “significantly reduced”. The “CCR1 mRNA expression” value in series [1] (at both time points (3 and 6 weeks), in 5 out of 6 patients) is listed as “reduced”. Further, in the series on schizophrenic patients [2] (3 W of augmentation treatment), the SANS total is 71 and 49 and 69 and 104 and 91 and 97; the SAPS total is 9 and 7 (2×) and 12 (2×) and 11. In addition, in the series with schizophrenic patients [2] (3 W), the Affective blunting score is 23 and 26 and 19 and 9 and 18 and 27; the Alogia score was 24 and 21 and 13; the Anhedonia score was 14 (2×) and 16 and 11 (2×) and 17; the Avolition score was 16 and 18 and 11 and 8 (2×) and 19. In addition, in the series on schizophrenic patients [2] (6 W of augmentation treatment), the SANS total was 63 and 46 and 60 and 103 and 86 and 98; the SAPS total is 9 and 7 and 6 and 12 (2×) and 10. In the series on schizophrenic patients [2] (6 W), the Affective blunting score was 30 and 22 and 14; the Alogia score is 21 and 26 (2×) and 16 and 9 and 15; the Anhedonia score is 14 (2×) and 8 and 9 and 12 and 17; the Avolition score was 16 and 18 and 11 and 8 (2×) and 19. Also, the SAPS score change entry in the series with schizophrenic patients [2] (following augmentation-treatment) was “no significant change”. The “mean SANS total score change” value in the series on schizophrenic patients [2] (following augmentation-treatment, p<0.001) is given as “significant changes”. In the series on schizophrenic patients [2] (following augmentation-treatment, p<0.01), the affective blunting change result is given as “significant changes”. In addition, in the series with schizophrenic patients [2] (following augmentation-treatment, p=0.30), the anhedonia change result is “trend”. Further, the avolition change result in the series on schizophrenic patients [2] (following augmentation-treatment, p=0.75) is on record as “trend”. For the same compound, in the series with schizophrenic patients [3] (3 W), the “Extra-pyramidal side effects score” value is 0 (5×) and 6. The “Extra-pyramidal side effects score” value with schizophrenic patients [3] (6 W) was 0 (5×) and 4. Besides, in the series with schizophrenic patients [3] (with augmentation treatment, absent in all, except one patient), the “Extra pyramidal side effects change” value is “did not change significantly”.
